Measurements as given in US12030912B2, “Cationic steroidal antimicrobial compounds with urethane linkages” (Brigham Young University, priority 2020, dated 2024).
Converted amounts (≈) assume the structure as drawn. Where two headings read alike, the source gives them in different places.

Legend:
[1] = test system: Pseudomonas aeruginosa (PA01 47085); test: Minimum inhibitory concentration (MIC), antimicrobial activity; format: cell-based; conditions: Pathogen PA01 47085
Description: (§1) The antimicrobial activity of CSA-255 was determined in comparison to CSA-44, a CSA compound known to have very high antimicrobial activity compared to other CSAs. The microbes used in the comparative test was were methicillin resistant Staphylococcus aureus (MRSA) BAA-41 and Pseudomonas aeruginosa (PA01 47085).

[2] = test system: methicillin resistant Staphylococcus aureus (MRSA) BAA-41; test: as above; format: cell-based; conditions: Pathogen MRSA BAA-41
Description: as §1

MIC [1] [µg/mL]	MIC [2] [µg/mL]	Structure (SMILES)	MIC ([1]; Pseudomonas aeruginosa, read-out: MIC) [µg/mL]	MIC ([2]; Staphylococcus aureus, read-out: MIC) [µg/mL]
2 (≈ 2.72 µM)	2 (≈ 2.72 µM)	CCCCCCCCOC(=O)CC[C@@H](C)[C@H]1CC[C@H]2[C@@H]3[C@H](OC(=O)CCN)C[C@@H]4C[C@H](OC(=O)CCN)CC[C@]4(C)[C@H]3C[C@H](OC(=O)CCN)[C@]12C [CSA-44]		
		CCCCCCCCNC(=O)CC[C@@H](C)[C@H]1CC[C@H]2[C@@H]3[C@H](OC(=O)NCCN)C[C@@H]4C[C@H](OC(=O)NCCN)CC[C@]4(C)[C@H]3C[C@H](OC(=O)NCCN)[C@]12C [CSA-255]	2 (≈ 2.57 µM)	4 (≈ 5.14 µM)
